Source: patent US20050155087A1, “Method of screening compounds” (priority 2001, published 2005)

What was measured:
[1] = system: wild-type zebrafish embryos; conditions: in vivo
[2] = system: crash & burn (SQW 226) mutant zebrafish embryos; assay: chemical suppressor screen: whole mount P-H3 immunostaining of crash & burn embryos; assay type: in vivo, zebrafish (Danio rerio)
zebrafish embryos [3] = conditions: cited from earlier work; for apoptosis in zebrafish embryos: in vivo
[4] = system: zebrafish (wild-type and SQW mutant strains); conditions: in vivo
[5] = system: cds mutant zebrafish embryos; assay: rescue of polyploid zebrafish mutant cds; conditions: in vivo
From the text: FIGS. 6A-6E show the ability of 8G16 to rescue a crash&burn (crb) zebrafish mutant (FIGS. 6B, untreated crb mutant and 6D 8G16 treated crb mutant) but not another polyploid zebrafish mutant cds (FIGS. 6C, untreated cds mutant and 6E, 8G16 treated cds mutant) compared to a wild-type, untreated embryo (FIG. 6A).

zebrafish embryos [6] = assay: FACS analysis of the cell cycle of cells from treated embryos; assay type: in vivo; conditions: embryos treated with 10 and 100 μM 8G16
From the text: Flow cylometric cell sorting analysis of zebrafish embryos to identify defects in cell cycle: To analyze the DNA content of the embryos wild-type and mutant embryonic cells were subjected to DNA flow cytometric cell sorting (FACS). We have shown that the FACS analysis of DNA content can be performed on cells from a single embryo allowing analysis and comparison of mutant and wild-type cell cycle phenotypes.
Embryos were anesthetized with tricaine (3-amino benzoic acid ethylester also called ethyl m-aminobenzoate, in a powdered form from Sigma, Cat.# A-5040). Tricaine solution for anesthetizing fish was prepared by combining the following: 400 mg tricaine powder, 97.9 ml DD water, and about 2.1 ml 1 M Tris (pH 9), pH was adjusted to about 7. Before use 4.2 ml of Tricaine solution was mixed with 100 ml clean tank water.
The embryos were dechorionated as described above and resuspended in a small volume of DMEM −20% FBS in a microtube. Embryos were disaggregated and resuspend in 1-2 ml of DMEM+20% FBS. The solution was passed through 105 μm mesh, and consequently 40 μm mesh. The total volume was raised to 5 ml and the cells' in the sample was counted using hemocytometer. Volume equaling 2×10^6 cells was transferred in 15 ml conical tube and filled to a total volume of 5 ml with PBS. The sample was spinned at 1200 rpm for 10 minutes and the liquid was aspirated off. […]

[7] = 9-20 μM, 24 hours of development

## Cc1cc(O)c(C(=O)C=Cc2ccc(O)cc2)c(=O)o1 [Compound 3, 4-Hydroxy-3-[3-(4-hydroxy-phenyl)-acryloyl]-6-methyl-pyran-2-one]
[1]
  P-H3 staining in wildtype embryos: decrease
[2]; zebrafish, in vivo
  P-H3 staining in crash and burn embryos: decrease

## O=C(Nc1cc(S(=O)(=O)c2ccc(Cl)cc2)ccc1Cl)c1cc(I)cc(I)c1O [Compound 6, 3,5-Diiodo-N-[2-chloro-5-(4-chloro-benzenesulfonyl)-phenyl]-2-hydroxy-benzamide]
[1]
  P-H3 staining in wildtype embryos: decrease
[2]; zebrafish, in vivo
  P-H3 staining in crash and burn embryos: decrease

## Cc1ccc(S(=O)(=O)Oc2ccc([N+](=O)[O-])cc2[N+](=O)[O-])cc1 [Compound 5, Toluene-4-sulfonic acid 2,4-dinitro-phenyl ester]
[1]
  P-H3 staining in wildtype embryos: decrease
[2]; zebrafish, in vivo
  P-H3 staining in crash and burn embryos: decrease

## CC1=CCC2(CO)COC(c3ccccc3O)C1C2 (stereo not shown) [Compound 14, 2-(5-Hydroxymethyl-8-methyl-3-oxa-bicyclo[3.3.1]non-7-en-2-yl)-phenol]
[1]
  P-H3 staining in wildtype embryos: increase

## C[C@@]1(CO)[C@H](O)CC[C@@]2(C)[C@H]1CC[C@H]1C[C@@H]3C[C@@]12CC[C@]3(O)CO [aphidicolin, reference compound]
Zebrafish embryos [3]
  apoptosis in zebrafish embryos: cause apoplosis
[2]; offspring of crash & burn heterozygotes raised in the presence of the chemical
  P-H3 staining in all embryos, including crash & burn: decreased

## CC[C@@]1(O)C(=O)OCc2c1cc1n(c2=O)Cc2cc3ccccc3nc2-1 [camptothecin]
Zebrafish embryos [3]
  apoptosis in zebrafish embryos: cause apoplosis

## N=c1ccccn1CC(=O)c1ccc(Cl)c(Cl)c1 [Compound 8, 1-(3,4-Dichloro-phenyl)-2-(2-imino-2H-pyridin-1-yl)-ethanone]
[1]
  P-H3 staining in wildtype embryos: decrease
[2]; zebrafish, in vivo
  P-H3 staining in crash and burn embryos: decrease

## COC(=O)CCC(=O)Nc1ccccc1Cl [Compound 10, N-(2-Chloro-phenyl)-succinamic acid methyl ester]
[1]
  P-H3 staining in wildtype embryos: increase

## O=C(O)CCCC(=O)Nc1cc(C(F)(F)F)ccc1Cl [Compound 11, 4-(2-Chloro-5-trifluoromethyl-phenylcarbamoyl)-butyric acid]
[1]
  P-H3 staining in wildtype embryos: increase

## Cc1ccccc1OCC(=O)Nc1ccccc1C(=O)O [Compound 9, 2-(2-o-Tolyloxy-acetylamino)-benzoic acid]
[1]
  P-H3 staining in wildtype embryos: decrease
[2]; zebrafish, in vivo
  P-H3 staining in crash and burn embryos: decrease

## NC(=O)NO [hydroxyurea]
Zebrafish embryos [3]
  apoptosis in zebrafish embryos: cause apoplosis

## CNc1ccc2oc(C[C@H]3O[C@@]4(CC[C@H]3C)O[C@H]([C@H](C)C(=O)c3ccc[nH]3)[C@H](C)C[C@H]4C)nc2c1C(=O)O [A23187]
Zebrafish embryos [3]; metaphase arrested cells
  fate of metaphase arrested cells: driven into G1

## COC(=O)Nc1nc2ccc(C(=O)c3cccs3)cc2[nH]1 [nocodazole]
Zebrafish embryos [3]; post-MBT embryos
  effect of treating post-MBT embryos: metaphase arrest and apoptosis

## O=C(CSC1CC(=O)N(c2cccc(Cl)c2)C1=O)Nc1cccc(F)c1 (stereo not shown) [Compound 13, 2-[1-(3-Chloro-phenyl)-2,5-dioxo-pyrrolidin-3-ylsulfanyl]-N-(3-fluoro-phenyl)-acetamide]
[1]
  P-H3 staining in wildtype embryos: increase

## O=C(O)c1cc([N+](=O)[O-])c(Nc2cccc3ccccc23)c([N+](=O)[O-])c1 [Compound 12, 4-(Naphthalen-1-ylamino)-3,5-dinitro-benzoic acid]
[1]
  P-H3 staining in wildtype embryos: increase

## C=CCOc1c(Br)cc(S(=O)(=O)c2cc(Br)c(O)c(Br)c2)cc1Br [Compound 2, 4-(4-Allyloxy-3,5-dibromo-benzenesulfonyl)-2,6-dibromo-phenol]
[1]
  P-H3 staining in wildtype embryos: decrease
[2]; zebrafish, in vivo
  P-H3 staining in crash and burn embryos: decrease

## Cc1c2ccccc2c(C)c2c1ccc1ccccc12 [DMBA, 7, 12 Dimethyl benzanlhracene]
[4]
  fish that developed tumors: 10.4%
  tumor types: more brain and liver tumors

## O=C(c1ccccc1)C1C(=O)C2C=CC=CC2C1=O (stereo not shown) [Compound 4, 2-Benzoyl-3a,7a-dihydro-indene-1,3-dione]
[1]
  P-H3 staining in wildtype embryos: decrease
[2]; zebrafish, in vivo
  P-H3 staining in crash and burn embryos: decrease

## O=C(Nc1ncccc1O)C12CC3CC(CC(C3)C1)C2 [8G16, Adamantane-1-carboxylic acid (3-hydroxy-pyridin-2-yl)-amide]
[5]
  rescue of polyploid zebrafish mutant cds: not
[1]
  effect on normal embryos: without affecting
  toxicity or cell cycle affects on wild-type embryos: without overt toxicity or cell cycle affects
Zebrafish embryos [6]
  cell cycle phase distribution: accumulation of cell in the G1/S phase
[2]; 10 μM 8G16, P-H3 antibody staining, genotype still crb
  phenotypic appearance of crash & burn: prevents
[2]; [7]
  P-H3 staining of treated embryos: normal
  developmental delay of treated embryos: slight developmental delay
[2]; doses of 9, 12, 16 and 20 μM, 30-60 embryos at each dose
  crash & burn mutants detected at 24 hours of development: no crash & burn mutants were detected
[2]; through 24 hours of development
  crash and burn cell cycle phenotype: prevents
[2]; zebrafish, in vivo
  rescue of crash&burn (crb) zebrafish mutant: rescue

## Nc1cc([N+](=O)[O-])ccc1NNC(=O)Nc1ccccc1 [Compound 7, 1-(2-Amino-4-nitro-phenylamino)-3-phenyl-urea]
[1]
  P-H3 staining in wildtype embryos: decrease
[2]; zebrafish, in vivo
  P-H3 staining in crash and burn embryos: decrease

## CC(=O)C1=C(C)NC(=O)NC1c1cccc(O)c1 (stereo not shown) [Compound 15, 5-Acetyl-4-(3-hydroxy-phenyl)-6-methyl-3,4-dihydro-1H-pyrimidin-2-one]
[1]
  P-H3 staining in wildtype embryos: increase
